From patent US20240360137A1 (Novartis AG, priority 2023, published 2024)

Columns and labels:
Assay in all cases: CDKi biochemical assay (TR-FRET, phosphorylation of S780 on RB1 peptide)
CDK1/CyclinB1 = CDK1/CyclinB1 (Homo sapiens, UniProt P06493); conditions: CDK1/CyclinB1 10 pM, 1 mM ATP, 60 min at 25° C.
Protocol: (§1) Biochemical assays measured the inhibitory effects of compounds in this disclosure on the enzymatic activity of CDK enzyme in complex with Cyclin protein partner by phosphorylation of Ser-780 (S780) on retinoblastoma protein peptide (RB1) in the presence of 1 mM adenosime-5-triphosphate (ATP) and varying concentration of test compound in 20 mM 2-[4-(2-hydroxyethyl)paperazin-1-yl] ethanesulfonic acid (HEPES), pH 7.5, 10 mM MgCl2, 1 mM dithiothreitol (DTT), 0.01% bovine serum albumin (BSA), 0.005% Tween 20. Total Reaction volume of 10 μL proceeded for 60 minutes at room temperature (25° C.) and were quenched with 5 μL of 200 mM 2′,2″,2′″-(Ethane-1,2-diyldinitrilo)tetraacetic acid (EDTA) pH 8.0 before addition of 5 μL detection solution containing 100 nM fluorophore conjugate streptavidin allophycocyanin (SA-APC), 2 nM Europium labelled Anti-p-RB(S780)-K (Perkin Elmer, 64CUSKAY), 50 mM HEPES, pH 7.5, 400 mM potassium fluoride (KF), 0.1% BSA, and 0.01% Tween-20. Phosphorylation of S780 on RB1 peptide (His-MBP-RB1[773-924]-SEQ ID NO. 9) was detected by TR-FRET after 3 hour incubation with detection solution. Percent phosphorylation activity was plotted against log concentration of compound to generate an apparent ICSO. The following CDK enzyme in complex with different cyclin proteins and protein peptide substrate were used in these assays: • CDK1/CyclinB1, Avi-tag, 10 pM used in the assay • CDK2/CyclinE1, Avi-tag, 100 pM used in the assay • CDK4/cyclinD1, Avi-tag, 20 pM used in the assay • CDK6/cyclinD3, Avi-tag, 10 pM used in the assay • His-MBP-RB1[773-924], Avi-tag, 200 nM used in the assay
(§2) The avi-tag is a C-terminal fusion on the CDK1/2/4/6 sequence in each of these two-protein complexes. The known avi-tag sequence, […] (SEQ ID NO. 10), is a substrate for E. coli biotin ligase BirA, which covalently attaches a biotin molecule to the e-amino group of the lysine in that sequence. The avi-tag is attached with an 8 amino-acid linker sequence GGSGGGGS (SEQ ID NO. 11), resulting in the full C-terminal fusion
(§3) Recombinant proteins were generated as N-terminal fusions of 9× His tag—E. coli Maltose Binding Protein (MBP), with or without a C-terminal Avi-tag.^1 CDK2 and His-MBP-RB1[773-924]-c-avi were expressed in E. coli while the remainder were expressed in Sf21 insect cells. Genes were synthesized commercially (GeneArt and Twist Bioscience) using codon frequencies appropriate to the respective organisms and proprietary codon optimization strategies, and inserted into pET 24 (E. coli) or pDEST8 (insect) vectors already containing the 9× His-MBP tag using standard methods of PCR and Gibson Assembly.^2 E. coli expression was performed by auto-induction overnight at 18 or 21 C. For insect cell expression, bacmids and viruses were created,^3 then used to synchronously infect Sf21 insect cells with harvest at 40-48 hrs., per standard protocols.^4
(§4) For CDK2/Cyclin E and CDK1/Cyclin B, the CDK and Cyclin proteins were expressed separately, lysed by sonication and clarified by centrifugation. The fusion proteins were each separately purified by immobilized metal ion affinity chromatography (IMAC) (5 mL HisTrap, Cytiva) and Superdex 200 26/60 (Cytiva) size-exclusion and complexed in vitro (1-3 hrs incubation at room temperature) prior to tag cleavage by recombinant his-tagged Tobacco Etch Virus protease or his-tagged Human rhinovirus 3C protease, as appropriate. The cleaved complex is further purified by Superdex 75 26/60 (Cytiva) size-exclusion followed by reverse-IMAC, in which the complex is in the column flow-through and residual His-MBP and his-tagged proteases are retained. The final complex is concentrated as desired by centrifugal concentration (Amicon Ultra 10,000 Da MWCO 15 mL concentrators, Millipore).
(§5) For the is-MBP-RB1[773-924]-c-avi, the protein was lysed by sonication and clarified by centrifugation. […]

CDK2/CyclinE1 = CDK2/CyclinE1 (Homo sapiens, UniProt P24941); conditions: CDK2/CyclinE1 100 pM, 1 mM ATP, 60 min at 25° C.
Protocol: as §1, §2, §3, §4
For E. coli expressed CDK2 and His-MBP-RB1[773-924]-c-avi, the proteins were biotinylated in vitro after the first IMAC step.^1
as §5

CDK4/cyclinD1 = CDK4/cyclinD1 (Homo sapiens, UniProt P11802); conditions: CDK4/cyclinD1 20 pM, 1 mM ATP, 60 min at 25° C.
Protocol: as §1, §2, §3
(§6) For CDK4/Cyclin D1 and CDK6/Cyclin D3, the complexes were expressed by simultaneous co-infection of insect cells by three separate viruses including one expressing untagged E. coli BirA. The expression media is supplemented with 50 uM d-biotin. The resulting protein complexes purified similarly. After lysis and clarification, the complex is purified by IMAC, Superdex 200 26/60 size exclusion, tag cleavage by human rhinovirus 3C protease, Superdex 75 26/60 size exclusion and reverse IMAC. BirA is typically not retained on the first IMAC, and excess CDK or Cyclin monomer is separated on the Superdex 200 size exclusion. Cleaved His-MBP and remaining monomer are removed by the Superdex 75 size exclusion and the reverse IMAC step. Final concentration by centrifugal concentrators as described above.
as §5

CDK6/cyclinD3 = CDK6/cyclinD3 (Homo sapiens, UniProt Q00534); conditions: CDK6/cyclinD3 10 pM, 1 mM ATP, 60 min at 25° C.
Protocol: as §1, §2, §3, §6, §5

Compound	IC50 (CDK1/CyclinB1) [µM]	IC50 (CDK2/CyclinE1) [µM]	IC50 (CDK4/cyclinD1) [µM]	IC50 (CDK6/cyclinD3) [µM]
Cn1ncc(-c2n[nH]cc2Nc2ncc3c(n2)N([C@@H]2CCC[C@@H](O)C2)C(=O)C32CC2)c1C(F)(F)F [Example 84, 7′-((1R,3R)-3-hydroxycyclohexyl)-2′-((1′-methyl-5′-(trifluoromethyl)-1H,1′H-[3,4′-bipyrazol]-4-yl)amino)spiro[cyclopropane-1,5′-pyrrolo[2,3-d]pyrimidin]-6′(7′H)-one]	≥ 10	0.088	≥ 10	≥ 10
O=C1N([C@@H]2CCCC[C@@H](O)C2)c2nc(Nc3c[nH]nc3Cl)ncc2C12CC2 [Example 19, 2′-((3-chloro-1H-pyrazol-4-yl)amino)-7′-((1R,3R)-3-hydroxycycloheptyl)spiro[cyclopropane-1,5′-pyrrolo[2,3-d]pyrimidin]-6′(7′H)-one]	4.12	0.044	7.58	9.16
CC(=O)N1CC2(CC(COc3n[nH]cc3Nc3ncc4c(n3)N([C@@H]3CCC[C@@H](O)C3)C(=O)C43CC3)C2)C1 [Example 53, 2′-((3-((2-acetyl-2-azaspiro[3.3]heptan-6-yl)methoxy)-1H-pyrazol-4-yl)amino)-7′-((1R,3R)-3-hydroxycyclohexyl)spiro[cyclopropane-1,5′-pyrrolo[2,3-d]pyrimidin]-6′(7′H)-one]	≥ 10	0.186	≥ 10	≥ 10
O=C1N([C@@H]2CCC[C@@H](O)C2)c2nc(Nc3c[nH]nc3-c3cccnc3)ncc2C12CC2 [Example 61, 7′-((1R,3R)-3-hydroxycyclohexyl)-2′-((3-(pyridin-3-yl)-1H-pyrazol-4-yl)amino)spiro[cyclopropane-1,5′-pyrrolo[2,3-d]pyrimidin]-6′(7′H)-one]	≥ 10	0.046	8.65	9.19
COCC(F)(F)COc1n[nH]cc1Nc1ncc2c(n1)N([C@@H]1CCC[C@@H](O)C1)C(=O)C21CC1 [Example 44, 2′-((3-(2,2-difluoro-3-methoxypropoxy)-1H-pyrazol-4-yl)amino)-7′-((1R,3R)-3-hydroxycyclohexyl)spiro[cyclopropane-1,5′-pyrrolo[2,3-d]pyrimidin]-6′(7′H)-one]	1.81	0.015	4.41	7.13
O=C1N([C@@H]2CCC[C@@H](O)C2)c2nc(Nc3c[nH]nc3-c3nnco3)ncc2C12CC2 [Example 83, 2′-((3-(1,3,4-oxadiazol-2-yl)-1H-pyrazol-4-yl)amino)-7′-((1R,3R)-3-hydroxycyclohexyl)spiro[cyclopropane-1,5′-pyrrolo[2,3-d]pyrimidin]-6′(7′H)-one]	8.62	0.031	2.18	2.67
O=C1N([C@@H]2CCC[C@@H](O)C2)c2nc(Nc3c[nH]nc3-c3cnn4cccnc34)ncc2C12CC2 [Example 81, 7′-((1R,3R)-3-hydroxycyclohexyl)-2′-((3-(pyrazolo[1,5-a]pyrimidin-3-yl)-1H-pyrazol-4-yl)amino)spiro[cyclopropane-1,5′-pyrrolo[2,3-d]pyrimidin]-6′(7′H)-one]	0.41	0.006	≥ 10	≥ 10
O=C1N([C@@H]2CCC[C@@H](O)C2)c2nc(Nc3c[nH]nc3C3CC3(F)F)ncc2C12CC2 (single isomer, unassigned) [Example 32]	0.34	0.006	2.76	4.8
Cc1c(-c2n[nH]cc2Nc2ncc3c(n2)N([C@@H]2CCC[C@@H](O)C2)C(=O)C32CC2)cnn1C(F)F [Example 62]	4.23	0.017	2.3	1.83
O=C1N([C@@H]2CCC[C@@H](O)C2)c2nc(Nc3c[nH]nc3-c3cnn4c3CCC4)ncc2C12CC2 [Example 47, 2′-((3-(5,6-dihydro-4H-pyrrolo[1,2-b]pyrazol-3-yl)-1H-pyrazol-4-yl)amino)-7′-((1R,3R)-3-hydroxycyclohexyl)spiro[cyclopropane-1,5′-pyrrolo[2,3-d]pyrimidin]-6′(7′H)-one]	≥ 10	0.027	6.38	7.55

Now from value to compound:

IC50 (CDK1/CyclinB1) [µM]	IC50 (CDK2/CyclinE1) [µM]	IC50 (CDK4/cyclinD1) [µM]	IC50 (CDK6/cyclinD3) [µM]	Compound
6.57	0.021	6.3	9.7	Cn1ncc(-c2n[nH]cc2Nc2ncc3c(n2)N([C@@H]2CCC[C@@H](O)C2)C(=O)C32CC2)c1C(F)F [Example 31, 2′-((5′-(difluoromethyl)-1′-methyl-1H,1′H-[3,4′-bipyrazol]-4-yl)amino)-7′-((1R,3R)-3-hydroxycyclohexyl)spiro[cyclopropane-1,5′-pyrrolo[2,3-d]pyrimidin]-6′(7′H)-one]
5.82	0.121	1.48	5.26	O=C1N([C@@H]2CCC[C@@H](O)C2)c2nc(Nc3c[nH]nc3O)ncc2C12CC2 [Example 77, 2′-((3-hydroxy-1H-pyrazol-4-yl)amino)-7′-((1R,3R)-3-hydroxycyclohexyl)spiro[cyclopropane-1,5′-pyrrolo[2,3-d]pyrimidin]-6′(7′H)-one]
≥ 10	1.35	5.73	9.35	COCc1ncc(Nc2ncc3c(n2)N([C@@H]2CCC[C@@H](O)C2)C(=O)C32CC2)[nH]1 [Example 11, 7′-((1R,3R)-3-hydroxycyclohexyl)-2′-((2-(methoxymethyl)-1H-imidazol-5-yl)amino)spiro[cyclopropane-1,5′-pyrrolo[2,3-d]pyrimidin]-6′(7′H)-one]
4.99	0.039	≥ 10	≥ 10	O=C1N([C@@H]2CCC[C@@H](O)C2)c2nc(Nc3c[nH]nc3C#Cc3cccnc3)ncc2C12CC2 [Example 36, 7′-((1R,3R)-3-hydroxycyclohexyl)-2′-((3-(pyridin-3-ylethynyl)-1H-pyrazol-4-yl)amino)spiro[cyclopropane-1,5′-pyrrolo[2,3-d]pyrimidin]-6′(7′H)-one]
≥ 10	0.251	≥ 10	≥ 10	O=C1N([C@@H]2CCC[C@@H](O)C2)c2nc(Nc3c[nH]nc3-c3ccncc3)ncc2C12CC2 [Example 59, 7′-((1R,3R)-3-hydroxycyclohexyl)-2′-((3-(pyridin-4-yl)-1H-pyrazol-4-yl)amino)spiro[cyclopropane-1,5′-pyrrolo[2,3-d]pyrimidin]-6′(7′H)-one]
